pIC50: −log10 of the molar value.
Key:
Type in all cases: cell-based
BT549 = experiment: Inhibition of cell proliferation, BT549; settings: Homo sapiens, BT-549; breast; 72 h; methylene blue or CellTiter-Glo
Protocol: (§1) II. Inhibition of Cell Proliferation by PLK1 Inhibitors.
(§2) Exponentially growing cell lines of different tumor origins, cultured in appropriate media containing 10% fetal bovine serum at 37° C. in a 5% CO2 incubator were plated in 96 or 384-well plates. Twenty four hours post-plating, cells were treated with different concentrations of test compounds ranging from 20 μM to 0.04 nM. Several wells were left untreated as a control. Seventy two hours post-treatment, cell numbers were determined using different techniques; 100 μl per well of methylene blue (Sigma M9140) (0.5% in 50:50 Ethanol:water), or 10-100 μl per well of CellTiter-Glo (Promega #G7573), depending on well size. For methylene blue staining, stain was incubated at room temperature for 30 minutes before plates were rinsed and dye solubilized in 1% N-lauroyl sarcosine, sodium salt, (Sigma L5125, in PBS). Plates were read on a microplate reader, measuring the OD at 620 nm. For CellTiter-Glo, plates were incubated at room temperature for 15 minutes and the chemiluminescent signal was read on the Victor V or Envison 2100 reader.
(§3) Percent inhibition of cell growth was expressed as percent proliferation relative to 100% proliferation (control). […]

HCC1937 = experiment: Inhibition of cell proliferation, HCC1937; settings: Homo sapiens, breast, 72 h, methylene blue or CellTiter-Glo
Protocol: as §1, §2, §3

HCT116 = experiment: Inhibition of cell proliferation, HCT116; settings: Homo sapiens, HCT-116; 72 h treatment; methylene blue or CellTiter-Glo
EB-3 = experiment: Inhibition of cell proliferation, EB-3; settings: Homo sapiens, peripheral blood, 72 h, methylene blue or CellTiter-Glo
Protocol: as §1, §2, §3

MV522 = experiment: Inhibition of cell proliferation, MV522; settings: Lung, 72 h, methylene blue or CellTiter-Glo
Protocol: as §1, §2, §3

MX-1 = experiment: Inhibition of cell proliferation, MX-1; settings: Homo sapiens, MX1; Breast; 72 h; methylene blue or CellTiter-Glo
Protocol: as §1, §2
(§4) Percent inhibition of cell growth was expressed as percent proliferation relative to 100% proliferation (control). Concentration of test compound that inhibited 50% of cell growth (IC50) was determined by 4 parameter fit of data using XLfit, (value of no cell control was substracted from all samples for background). The data are shown in Table 1 and Table 2 below and represent a compilation of several different experiments each performed using the general parameters outlined above, although minor variations may have been employed in some instances, in Table 1 and Table 2, +=IC50>1 μM; ++=IC50 0.5-1 μM: +++=IC50<0.5 μM.

Calu1 = experiment: Inhibition of cell proliferation, Calu1; settings: Homo sapiens, Calu-1; lung; 72 h; methylene blue or CellTiter-Glo
Protocol: as §1, §2, §3

SKMEL28 = experiment: Inhibition of cell proliferation, SKMEL28; settings: Homo sapiens, SK-MEL-28; skin; 72 h; methylene blue or CellTiter-Glo
Protocol: as §1, §2, §3

CRO-AP2 = experiment: Inhibition of cell proliferation, CRO-AP2; settings: Homo sapiens, peripheral blood, 72 h, methylene blue or CellTiter-Glo
Protocol: as §1, §2, §3

MiaPaca = experiment: Inhibition of cell proliferation, MiaPaca; settings: Homo sapiens, MIA PaCa-2; Pancreatic; 72 h; methylene blue or CellTiter-Glo
Protocol: as §1, §2, §3

NCI-H727 = experiment: Inhibition of cell proliferation, NCI-H727; settings: Homo sapiens, lung, 72 h, methylene blue or CellTiter-Glo
Protocol: as §1, §2, §3

A431 = experiment: Inhibition of cell proliferation, A431; settings: Homo sapiens, A-431; skin; 72 h; methylene blue or CellTiter-Glo
Protocol: as §1, §2, §3

COLO205 = experiment: Inhibition of cell proliferation, COLO205; settings: Homo sapiens, COLO 205; Colon; 72 h; methylene blue or CellTiter-Glo
Protocol: as §1, §2, §4

T24 = experiment: Inhibition of cell proliferation, T24; settings: Homo sapiens, T-24; urinary bladder; 72 h; methylene blue or CellTiter-Glo
Protocol: as §1, §2, §3

Hela = experiment: Inhibition of cell proliferation, Hela; settings: Homo sapiens, Cervical, 72 h, methylene blue or CellTiter-Glo
Protocol: as §1, §2, §3

Panc 02.03 = experiment: Inhibition of cell proliferation, Panc 02.03; settings: Homo sapiens, pancreas, 72 h, methylene blue or CellTiter-Glo
Protocol: as §1, §2, §3

P388 = experiment: Inhibition of cell proliferation, P388; settings: Mouse leukemia, 72 h, methylene blue or CellTiter-Glo
Protocol: as §1, §2, §4

BC-2 = experiment: Inhibition of cell proliferation, BC-2; settings: peripheral blood, 72 h, methylene blue or CellTiter-Glo
Protocol: as §1, §2, §3

SK-BR-3 = experiment: Inhibition of cell proliferation, SK-BR-3; settings: Homo sapiens, breast, 72 h, methylene blue or CellTiter-Glo
Protocol: as §1, §2, §3

NCI-N87 = experiment: Inhibition of cell proliferation, NCI-N87; settings: Homo sapiens, stomach, 72 h, methylene blue or CellTiter-Glo
Protocol: as §1, §2, §3

Hep3B = experiment: Inhibition of cell proliferation, Hep3B; settings: Homo sapiens, liver, 72 h, methylene blue or CellTiter-Glo
Protocol: as §1, §2, §3

PANC-1 = experiment: Inhibition of cell proliferation, PANC-1; settings: Homo sapiens, pancreatic, 72 h, methylene blue or CellTiter-Glo
Protocol: as §1, §2, §3

Saos-2 = experiment: Inhibition of cell proliferation, Saos-2; settings: Homo sapiens, bone, 72 h, methylene blue or CellTiter-Glo
Protocol: as §1, §2, §3

HT29 = experiment: Inhibition of cell proliferation, HT29; settings: Homo sapiens, HT-29; Colon; 72 h; methylene blue or CellTiter-Glo
Protocol: as §1, §2, §4

LNCaP = experiment: Inhibition of cell proliferation, LNCaP; settings: Homo sapiens, Prostate, 72 h, methylene blue or CellTiter-Glo
Protocol: as §1, §2, §3

CA46 = experiment: Inhibition of cell proliferation, CA46; settings: Homo sapiens, peripheral blood, 72 h, methylene blue or CellTiter-Glo
Protocol: as §1, §2, §3

`C[C@@H](Oc1cc(-n2cnc3cc(-c4cnn(C)c4)ccc32)sc1C(N)=O)c1cccc(OC2CCN(C)CC2)c1Cl` [Example 48] gave a pIC50 (BT549) greater than 6.30, a pIC50 (HCC1937) of less than 6.00 and a pIC50 (HCT116) greater than 6.30. The pIC50 (EB-3) was greater than 6.30, the pIC50 (MV522) was greater than 6.30 and the pIC50 (MX-1) was greater than 6.30. It also gave a pIC50 (Calu1) greater than 6.30, a pIC50 (SKMEL28) of less than 6.00 and a pIC50 (CRO-AP2) greater than 6.30. The pIC50 (MiaPaca) was greater than 6.30, the pIC50 (NCI-H727) was less than 6.00 and the pIC50 (A431) was greater than 6.30. It also gave a pIC50 (COLO205) greater than 6.30, a pIC50 (T24) greater than 6.30 and a pIC50 (Hela) greater than 6.30. It also gave a pIC50 (Panc 02.03) greater than 6.30, a pIC50 (P388) greater than 6.30 and a pIC50 (BC-2) of less than 6.00. It also gave a pIC50 (SK-BR-3) greater than 6.30, a pIC50 (NCI-N87) greater than 6.30 and a pIC50 (Hep3B) greater than 6.30. It also gave a pIC50 (PANC-1) greater than 6.30, a pIC50 (Saos-2) greater than 6.30 and a pIC50 (HT29) greater than 6.30. The pIC50 (LNCaP) was greater than 6.30 and the pIC50 (CA46) was greater than 6.30.
